Experimental data published in PubChem BioAssay (NCI).
“And” between values parts separate entries of the source, which are not always exact repeats. Identical values can stand only once.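 These data come from cells grown in 96-well plates and exposed to compound for 48 hours at five concentrations. Abbreviation: GI50, concentration required for 50% inhibition of growth. TGI marks complete inhibition of growth.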

How the values were obtained:
Test in all cases: NCI-60 cell line screen, 48 h
786-0 renal = system: 786-0 renal
CCRF-CEM leukemia = system: CCRF-CEM leukemia
HCT-15 colon = system: HCT-15 colon
KM12 colon = system: KM12 colon
MDA-MB-231 breast = system: MDA-MB-231 breast
MDA-MB-435 = system: MDA-MB-435
NCI/ADR-RES ovarian = system: NCI/ADR-RES ovarian
SF-268 CNS = system: SF-268 CNS
UO-31 renal = system: UO-31 renal
DU-145 prostate = system: DU-145 prostate

SMILES: CCCCCCNCCCNc1c2ccccc2nc2cccc([N+](=O)[O-])c12
- GI50 (786-0 renal): 0.0239 µM
- TGI (786-0 renal): 0.0416 µM and 0.193 µM
- GI50 (CCRF-CEM leukemia): 0.0277 µM
- TGI (CCRF-CEM leukemia): 0.17 µM and 0.182 µM
- TGI (HCT-15 colon): > 100 µM
- TGI (KM12 colon): 0.0352 µM and 0.0335 µM
- GI50 (MDA-MB-231 breast): 0.0151 µM
- TGI (MDA-MB-231 breast): 0.0933 µM and 0.221 µM
- TGI (MDA-MB-435): 0.0226 µM and 0.0234 µM
- GI50 (NCI/ADR-RES ovarian): 0.54 µM
- TGI (NCI/ADR-RES ovarian): 1.66 µM and 2.8 µM
- GI50 (SF-268 CNS): 0.038 µM
- TGI (SF-268 CNS): 0.0522 µM and 0.405 µM
- GI50 (UO-31 renal): 0.145 µM
- TGI (UO-31 renal): 0.393 µM and 0.331 µM

SMILES: CSC1(CC(=O)N2CCCCC2)C(=O)Nc2ccccc21 (stereo not drawn)
- TGI (786-0 renal): > 100 µM
- TGI (DU-145 prostate): > 100 µM
- TGI (HCT-15 colon): > 100 µM
- TGI (KM12 colon): > 100 µM
- TGI (MDA-MB-435): > 100 µM
- TGI (NCI/ADR-RES ovarian): > 100 µM
- TGI (SF-268 CNS): > 100 µM
- TGI (UO-31 renal): > 100 µM

SMILES: COC1=C(OC)[C@]2(OC)c3c(O)c(OC)c4c(c3O[C@@]23O[C@@H](c2ccccc2)CC=C3C1=O)[C@@H](O)C[C@H](c1ccccc1)O4
- GI50 (786-0 renal): 0.171 µM
- TGI (786-0 renal): 0.339 µM
- GI50 (CCRF-CEM leukemia): 0.0545 µM
- TGI (CCRF-CEM leukemia): 0.208 µM
- GI50 (DU-145 prostate): 2.23 µM
- TGI (DU-145 prostate): 4.56 µM
- GI50 (HCT-15 colon): 0.157 µM
- TGI (HCT-15 colon): 0.34 µM
- GI50 (MDA-MB-231 breast): 0.234 µM
- TGI (MDA-MB-231 breast): 0.911 µM
- GI50 (MDA-MB-435): 0.27 µM
- TGI (MDA-MB-435): 0.87 µM
- GI50 (NCI/ADR-RES ovarian): 0.688 µM
- TGI (NCI/ADR-RES ovarian): 3.39 µM
- GI50 (SF-268 CNS): 0.311 µM
- TGI (SF-268 CNS): 1.35 µM
- GI50 (UO-31 renal): 1.33 µM
- TGI (UO-31 renal): 2.6 µM

SMILES: COc1cc(Nc2nc3cc(C(F)(F)F)ccc3nc2C)cc(OC)c1OC
- TGI (786-0 renal): 24.8 µM
- TGI (CCRF-CEM leukemia): 24.3 µM
- TGI (HCT-15 colon): 12.2 µM
- TGI (KM12 colon): 21.5 µM
- TGI (SF-268 CNS): 33.5 µM
- TGI (UO-31 renal): 12.6 µM

SMILES: FC(F)(F)c1nc(-c2ccccc2)oc1Sc1oc(-c2ccccc2)nc1C(F)(F)F
- TGI (786-0 renal): > 100 µM
- TGI (CCRF-CEM leukemia): > 100 µM
- TGI (HCT-15 colon): > 100 µM
- TGI (KM12 colon): > 100 µM
- TGI (SF-268 CNS): > 100 µM
- TGI (UO-31 renal): > 100 µM

SMILES: O=C(O)[C@@H](NS(=O)(=O)c1ccc([N+](=O)[O-])cc1)c1ccccc1
- TGI (786-0 renal): > 100 µM
- TGI (CCRF-CEM leukemia): > 100 µM
- TGI (HCT-15 colon): > 100 µM
- TGI (KM12 colon): > 100 µM
- TGI (SF-268 CNS): > 100 µM
- TGI (UO-31 renal): > 100 µM

SMILES: C/C(=C\c1ccn(-c2ccc(N)cc2F)n1)[C@@H]1C[C@@H]2O[C@]2(C)CCC[C@H](C)[C@H](O)[C@@H](C)C(=O)C(C)(C)[C@@H](O)CC(=O)O1
- GI50 (786-0 renal): 0.0992 µM
- TGI (786-0 renal): > 50 µM
- GI50 (CCRF-CEM leukemia): 0.0197 µM
- TGI (CCRF-CEM leukemia): > 50 µM
- GI50 (DU-145 prostate): 0.024 µM
- TGI (DU-145 prostate): 0.285 µM
- GI50 (HCT-15 colon): 0.0226 µM
- TGI (HCT-15 colon): > 50 µM
- GI50 (KM12 colon): 0.0156 µM
- TGI (KM12 colon): > 50 µM
- GI50 (MDA-MB-231 breast): 0.132 µM
- TGI (MDA-MB-231 breast): > 50 µM
- GI50 (NCI/ADR-RES ovarian): 0.0921 µM
- TGI (NCI/ADR-RES ovarian): 1.19 µM
- GI50 (SF-268 CNS): 0.0822 µM
- TGI (SF-268 CNS): > 50 µM
- GI50 (UO-31 renal): 0.176 µM
- TGI (UO-31 renal): > 50 µM

SMILES: c1ccc2c(c1)[nH]c1c2ncc2[nH]c3ccccc3c21
- TGI (786-0 renal): 5.61 µM
- TGI (CCRF-CEM leukemia): 9.45 µM
- TGI (HCT-15 colon): 7.7 µM
- TGI (KM12 colon): 10.3 µM
- TGI (SF-268 CNS): 36.8 µM
- TGI (UO-31 renal): 8.79 µM

SMILES: CC(C)c1cccc(C(C)C)c1NC(=O)CCC(=O)NN
- TGI (786-0 renal): > 100 µM
- TGI (CCRF-CEM leukemia): > 100 µM
- TGI (HCT-15 colon): 37.7 µM
- TGI (KM12 colon): > 100 µM
- TGI (SF-268 CNS): > 100 µM
- TGI (UO-31 renal): > 100 µM

SMILES: CCOC(=O)N1C=CC(=C2C(=C3C=CN(C(=O)OCC)C=C3)C(=C3C=CN(C(=O)OCC)C=C3)C2=C2C=CN(C(=O)OCC)C=C2)C=C1
- TGI (786-0 renal): > 100 µM
- TGI (DU-145 prostate): > 100 µM
- TGI (HCT-15 colon): 44.1 µM
- TGI (KM12 colon): > 100 µM
- TGI (MDA-MB-231 breast): 70.5 µM
- TGI (MDA-MB-435): 98.8 µM
- TGI (NCI/ADR-RES ovarian): > 100 µM
- TGI (SF-268 CNS): > 100 µM
- TGI (UO-31 renal): 38.5 µM

SMILES: Cn1sc2ccccc2c1=S
- TGI (786-0 renal): 13.6 µM
- TGI (CCRF-CEM leukemia): 14.8 µM
- TGI (HCT-15 colon): 17.3 µM
- TGI (KM12 colon): 25.3 µM
- TGI (NCI/ADR-RES ovarian): 9.38 µM
- TGI (SF-268 CNS): 9.79 µM
- TGI (UO-31 renal): 28.7 µM

SMILES: CCCN1C(=O)CNC(=O)c2[nH]cnc21
- TGI (786-0 renal): > 100 µM
- TGI (CCRF-CEM leukemia): > 100 µM
- TGI (HCT-15 colon): > 100 µM
- TGI (KM12 colon): > 100 µM
- TGI (SF-268 CNS): > 100 µM
- TGI (UO-31 renal): > 100 µM

SMILES: Nc1nc(=Nc2ccccc2)ss1
- TGI (786-0 renal): > 100 µM
- TGI (KM12 colon): > 100 µM
- TGI (SF-268 CNS): > 100 µM
- TGI (UO-31 renal): > 100 µM

SMILES: COc1ccc(C2C3=C(COC3=O)Oc3cc4c(cc32)OCO4)cc1 (stereo not drawn)
- TGI (786-0 renal): > 100 µM
- TGI (CCRF-CEM leukemia): > 100 µM
- TGI (HCT-15 colon): > 100 µM
- TGI (UO-31 renal): 74 µM

SMILES: COc1cc(/C=C2\C[C@H]3[C@@H]4CC=C5C[C@@H](OC(C)=O)CC[C@]5(C)[C@H]4CC[C@]3(C)[C@H]2OC(C)=O)ccc1OCCN1CCCCC1
- GI50 (786-0 renal): 12.3 µM
- TGI (786-0 renal): 21.3 µM
- GI50 (DU-145 prostate): 15.2 µM
- TGI (DU-145 prostate): 44.4 µM
- GI50 (HCT-15 colon): 7.59 µM
- TGI (HCT-15 colon): 15.8 µM
- GI50 (KM12 colon): 14.4 µM
- TGI (KM12 colon): 46.1 µM
- GI50 (MDA-MB-231 breast): 11 µM
- TGI (MDA-MB-231 breast): 25.4 µM
- GI50 (MDA-MB-435): 14.4 µM
- TGI (MDA-MB-435): 44.4 µM
- GI50 (NCI/ADR-RES ovarian): > 50 µM
- TGI (NCI/ADR-RES ovarian): > 50 µM
- GI50 (SF-268 CNS): 35.7 µM
- TGI (SF-268 CNS): > 50 µM
- GI50 (UO-31 renal): 11.1 µM
- TGI (UO-31 renal): 29.1 µM

SMILES: COc1ccccc1NC(=O)C(CC(C(=O)Nc1ccccc1OC)/C(C)=N/NC(=O)c1ccccc1O)/C(C)=N/NC(=O)c1ccccc1O (stereo not drawn)
- TGI (786-0 renal): > 100 µM
- TGI (CCRF-CEM leukemia): > 100 µM
- TGI (KM12 colon): > 100 µM
- TGI (SF-268 CNS): > 100 µM
- TGI (UO-31 renal): > 100 µM

SMILES: CCOC(=O)c1cc(OC(=O)CC)c2c(OC)ccc(OC)c2c1
- TGI (786-0 renal): > 100 µM
- TGI (HCT-15 colon): 96.6 µM
- TGI (KM12 colon): > 100 µM
- TGI (UO-31 renal): > 100 µM

SMILES: COC(C)(C)[C@H](O)C(O)CC(C)[C@@H]1CCC23CC12CCC1[C@@]2(C)CCC(OC(C)=O)C(C)(C)C2CC(OC2OC(COC(C)=O)C(O)C(O)C2O)[C@]13C (stereo partly drawn)
- GI50 (786-0 renal): 11.5 µM
- TGI (786-0 renal): 15 µM and 25.2 µM
- GI50 (CCRF-CEM leukemia): 4.08 µM
- TGI (CCRF-CEM leukemia): 9.67 µM and 17.3 µM
- GI50 (HCT-15 colon): 6.86 µM
- TGI (HCT-15 colon): 6.28 µM and 19.8 µM
- GI50 (KM12 colon): 4.23 µM
- TGI (KM12 colon): 7.55 µM and 14.1 µM
- GI50 (SF-268 CNS): 6.87 µM
- TGI (SF-268 CNS): 12.4 µM and 21.3 µM
- TGI (UO-31 renal): 14.5 µM and 18.6 µM

SMILES: O=C(C=Nc1ccccc1C(=O)[O-])c1cccs1.O=C(C=Nc1ccccc1C(=O)[O-])c1cccs1.[Zn+2]
- TGI (786-0 renal): > 100 µM
- TGI (CCRF-CEM leukemia): 65.3 µM
- TGI (HCT-15 colon): > 100 µM
- TGI (KM12 colon): > 100 µM
- TGI (SF-268 CNS): 79.8 µM
- TGI (UO-31 renal): > 100 µM

SMILES: Nc1ncnc2c1ncn2C1OC(COC2C(CO)OC(OC(C(=O)O)C(O)C(OP(=O)(O)O)C(O)C(=O)O)C(O)C2O)C(O)C1O (stereo not drawn)
- TGI (786-0 renal): > 100 µM
- TGI (CCRF-CEM leukemia): > 100 µM
- TGI (HCT-15 colon): > 100 µM
- TGI (KM12 colon): > 100 µM
- TGI (MDA-MB-231 breast): > 100 µM
- TGI (MDA-MB-435): > 100 µM
- TGI (SF-268 CNS): > 100 µM

SMILES: Cc1ccc(NC(=O)c2cc3ccccc3cc2O)c(C)c1.Cc1ccc(NC(=O)c2cc3ccccc3cc2[O-])c(C)c1.[Ni+2]
- GI50 (786-0 renal): 3.77 µM
- TGI (786-0 renal): 14.6 µM
- GI50 (DU-145 prostate): 3.27 µM
- TGI (DU-145 prostate): 13.2 µM
- GI50 (HCT-15 colon): 3.24 µM
- TGI (HCT-15 colon): 17.2 µM
- GI50 (KM12 colon): 3.41 µM
- TGI (KM12 colon): 15.9 µM
- GI50 (MDA-MB-231 breast): 2.33 µM
- TGI (MDA-MB-231 breast): 5.27 µM
- GI50 (MDA-MB-435): 3.38 µM
- TGI (MDA-MB-435): 13.1 µM
- GI50 (NCI/ADR-RES ovarian): 2.45 µM
- TGI (NCI/ADR-RES ovarian): 8.6 µM
- GI50 (SF-268 CNS): 3.52 µM
- TGI (SF-268 CNS): 17.2 µM
- GI50 (UO-31 renal): 3.79 µM
- TGI (UO-31 renal): 11.9 µM
